Results reported in patent US20050267067A1, “Radical reaction inhibitors, method for inhibition of radical reactions, and use thereof” (priority 2002, published 2005).

Tests used:
sucrase = experiment: Sucrase activity of rat small intestinal mucosal enzyme solution after AAPH oxidation; type: biochemical
Experimental: One milliliter of the above rat small intestinal mucosal enzyme solution, one milliliter of a 100 mM AAPH solution, one milliliter of a 50 mM phosphate buffer (pH 7.2), and one milliliter of a 400 mM of the crystalline cyclotetrasaccharide pentahydrate prepared in Experiment 1-1 were mixed, incubated at 37° C. for two hours, and measured for the activities of sucrase and maltase.
After incubated at 37° C. for 30 min, the mixture was quantified for free glucose by the GOD method.

maltase = experiment: Maltase activity of rat small intestinal mucosal enzyme solution after AAPH oxidation; type: biochemical
Experimental: One milliliter of the above rat small intestinal mucosal enzyme solution, one milliliter of a 100 mM AAPH solution, one milliliter of a 50 mM phosphate buffer (pH 7.2), and one milliliter of a 400 mM of the crystalline cyclotetrasaccharide pentahydrate prepared in Experiment 1-1 were mixed, incubated at 37° C. for two hours, and measured for the activities of sucrase and maltase. […] To a half milliliter of a maltose solution, which had been prepared by dissolving maltose in 50 mM sodium maleate (pH 6.6) to give a concentration of one percent (%), 0.05 ml of a AAPH-rat small intestinal mucosal enzyme solution. After incubated at 37° C. for 30 min, the mixture was quantified for free glucose by the GOD method. One unit (U) activity of maltase was defined as an enzyme amount that releases two micromoles of glucose per minutes from maltose at 37° C.

calf serum albumin (BSA) = experiment: Modification of BSA by lipid peroxides (protein carbonyl, OLAARPs); type: biochemical; details: for OLAARPs Formation: (%) / Protein carbonyl Formation: (%): BSA, versus no saccharide; for Formed OLAARPs / Formed Protein carbonyl: 37° C., 24 hours
Experimental: (§1) In this experiment, saccharide solutions were prepared to give an equal total saccharide molar concentration in each solution.
(§2) As a negative control, PBS was used.
(§3) To five milliliters of either of the above saccharide solutions for testing or the negative control was added 10 mg of calf serum albumin (BSA) or L-lysine, followed by dissolving. To each of the resulting solutions was added 25 μg of 2,4-decadienal or malondialdehyde (MDA) as a lipid peroxide, followed by reaction at 37° C. for 24 hours. After completion of the reaction, protein carbonyl and reaction products of oxidized lipids/aminoacids (OLAARPs) formed as aldehyde adducts were quantified on the calorimetric method. […] The formation levels of protein carbonyl and OLAARPs were determined based on the absorbances obtained in this experiment, in terms of the molar absorbance coefficient for each molecule as disclosed in Biochim. Biophys.
(§4) To each of the resulting mixtures was added 600 μl of 30% trichloroacetic acid, and the mixture was allowed to stand at 0° C. for one hour and centrifuged at 10,000 rpm for 15 min to obtain a precipitate, followed by washing the resulting precipitate four times with two milliliters of ethanol/ethylacetate (1:1), respectively, adding 1.5 ml of 6M-guanidine hydrochloride/20 mM-NaPi/TFA (pH 2.3) to the resultant, allowing the mixture to stand at 37° C. for 30 min, and measuring the absorbance of the resulting mixture at a wavelength of 580 nm, ε=35,000 M^−1 cm^−1.

[1] = Modification of L-lysine by lipid peroxides (protein carbonyl, OLAARPs); details: for OLAARPs Formation: (%) / Protein carbonyl Formation: (%): L-lysine, versus no saccharide; for Formed OLAARPs / Formed Protein carbonyl: 37° C., 24 hours
Experimental: as §1, §2
as §3, with “Biophys. Acta, No. 1,258, pp. 319-327 (1985).” for “Biophys.”
as §4, with “cm^−1. […] To any one of the resulting mixtures was added two milliliters of a 12.5 mM DNPH/2.5 N-hydrochloride solution, and the resulting mixture was allowed to stand at 45° C. for 30 min, followed by measuring the absorbance of the resulting mixture at a wavelength of 580 nm, E=35,000 M^−1 cm^−1.” for “cm^−1.”

[2] = enzyme solution incubated with AAPH at 37° C. for two hours, with or without cyclotetrasaccharide
[3] = versus system with no AAPH, 37° C., two hours
[4] = added lipid peroxide 2,4-decadienal
[5] = added lipid peroxide malondialdehyde (MDA)

Row | Sucrase activity (sucrase; [2]) | Sucrase Relative residual activity (%) (sucrase; [3]) | Maltase activity (maltase; [2]) | Maltase Relative residual activity (%) (maltase; [3]) | Compound | OLAARPs Formation: (%) (calf serum albumin (BSA); 2,4-decadienal) | Protein carbonyl Formation: (%) (calf serum albumin (BSA); 2,4-decadienal) | OLAARPs Formation: (%) (calf serum albumin (BSA); MDA) | Protein carbonyl Formation: (%) (calf serum albumin (BSA); MDA) | Formed OLAARPs (calf serum albumin (BSA); [4]) | Formed Protein carbonyl (calf serum albumin (BSA); [4]) | Formed OLAARPs (calf serum albumin (BSA); [5]) | Formed Protein carbonyl (calf serum albumin (BSA); [5]) | OLAARPs Formation: (%) ([1]; 2,4-decadienal) | Protein carbonyl Formation: (%) ([1]; 2,4-decadienal) | OLAARPs Formation: (%) ([1]; MDA) | Protein carbonyl Formation: (%) ([1]; MDA) | Formed OLAARPs [1, 4] | Formed Protein carbonyl [1, 4] | Formed OLAARPs [1, 5] | Formed Protein carbonyl [1, 5]
1 | 0.0042 u/mg-protein | (29) % | 0.0555 u/mg-protein | (71) % | CC(C)(N=NC(C)(C)C(=N)N)C(=N)N.Cl.Cl [AAPH, 2,2′-azo-bis(2-amidinopropane)dihydrochloride, reference compound] |  |  |  |  |  |  |  |  |  |  |  |  |  |  |  | 
2 |  |  |  |  | OC[C@@H](O)[C@@H](O[C@H]1O[C@H](CO)[C@@H](O)[C@H](O)[C@H]1O)[C@H](O)[C@@H](O)CO [Maltitol, maltitol] | (67) % | (53) % | (48) % | (53) % | 2.83 μmol/g-BSA | 7.51 μmol/g-BSA | 2.78 μmol/g-BSA | 1.29 μmol/g-BSA | (73) % | (51) % | (84) % | (55) % | 5.90 μmol/g-L-lysine | 6.81 μmol/g-L-lysine | 7.23 μmol/g-L-lysine | 3.29 μmol/g-L-lysine
3 |  |  |  |  | OC[C@H]1O[C@@](CO)(O[C@H]2O[C@H](CO)[C@@H](O)[C@H](O)[C@H]2O)[C@@H](O)[C@@H]1O [Sucrose, sucrose] |  |  |  |  |  |  |  |  | (93) % | (81) % | (94) % | (96) % | 7.54 μmol/g-L-lysine | 10.92 μmol/g-L-lysine | 8.13 μmol/g-L-lysine | 5.75 μmol/g-L-lysine
